Patent US10954197B2, “Cathepsin-D and angiogenesis inhibitors and compositions thereof for treating breast cancer” (YOGEE'S BIOINNOVATIONS PRIVATE LIMITED, priority 2017, dated 2021)

Melting point, 40 to 42 °C:
COc1ccc(Cl)cc1NC(=O)CSc1n[nH]c(CNc2cccc(C)c2)n1 [Example 1, N-(5-chloro-2-methoxyphenyl)-2-((5-((m-tolylamino)methyl)-1H-1,2,4-triazol-3-yl)thio)acetamide]
Cc1cccc(NCc2nc(SCC(=O)Nc3ccccc3)n[nH]2)c1 [Example 2, N-Phenyl-2-((5-((m-tolylamino)methyl)-1H-1,2,4-triazol-3-yl)thio)acetamide]
Cc1cccc(NCc2nc(SCC(=O)Nc3cccc(F)c3)n[nH]2)c1 [Example 3, N-(3-fluorophenyl)-2-((5-((m-tolylamino)methyl)-1H-1,2,4-triazol-3-yl)thio)acetamide]
COc1ccc(NC(=O)CSc2n[nH]c(CNc3cccc(C)c3)n2)cc1 [Example 5, N-(4-methoxyphenyl)-2-((5-((m-tolylamino)methyl)-1H-1,2,4-triazol-3-yl)thio)acetamide]
Cc1cccc(NCc2nc(SCC(=O)Nc3ccc(Cl)c(Cl)c3)n[nH]2)c1 [Example 6, N-(3,4-dichlorophenyl)-2-((5-((m-tolylamino)methyl)-1H-1,2,4-triazol-3-yl)thio)acetamide]
COc1cc(NC(=O)CSc2n[nH]c(CNc3cccc(C)c3)n2)cc(OC)c1 [Example 7, N-(3,5-dimethoxyphenyl)-2-((5-((m-tolylamino)methyl)-1H-1,2,4-triazol-3-yl)thio)acetamide]
Cc1cccc(NCc2nc(SCC(=O)Nc3cc(C(F)(F)F)ccc3Cl)n[nH]2)c1 [Example 8, N-(2-chloro-5-(trifluoromethyl)phenyl)-2-((5-((m-tolylamino)methyl)-1H-1,2,4-triazol-3-yl)thio)acetamide]
O=C(CSc1n[nH]c(CNc2ccccc2)n1)Nc1ccccc1 [Example 9, N-phenyl-2-((5-((phenylamino)methyl)-1H-1,2,4-triazol-3-yl)thio)acetamide]
O=C(CSc1n[nH]c(CNc2ccccc2)n1)Nc1cccc(F)c1 [Example 10, N-(3-fluorophenyl)-2-((5-((phenylamino)methyl)-1H-1,2,4-triazol-3-yl)thio)acetamide]
O=C(CSc1n[nH]c(CNc2ccccc2)n1)Nc1cccc(Br)c1 [Example 11, N-(3-bromophenyl)-2-((5-((phenylamino)methyl)-1H-1,2,4-triazol-3-yl)thio)acetamide]
COc1ccc(NC(=O)CSc2n[nH]c(CNc3ccccc3)n2)cc1 [Example 12, N-(4-methoxyphenyl)-2-((5-((phenylamino)methyl)-1H-1,2,4-triazol-3-yl)thio)acetamide]
O=C(CSc1n[nH]c(CNc2ccccc2)n1)Nc1ccc(Cl)c(Cl)c1 [Example 13, N-(3,4-dichlorophenyl)-2-((5-((phenylamino)methyl)-1H-1,2,4-triazol-3-yl)thio)acetamide]
COc1cc(NC(=O)CSc2n[nH]c(CNc3ccccc3)n2)cc(OC)c1 [Example 14, N-(3,5-dimethoxyphenyl)-2-((5-((phenylamino)methyl)-1H-1,2,4-triazol-3-yl)thio)acetamide]
CC(=O)c1cccc(NC(=O)CSc2n[nH]c(NC(=S)NCc3ccccc3)n2)c1 [Example 18, N-(3-acetylphenyl)-2-((5-(3-benzylthioureido)-1H-1,2,4-triazol-3-yl)thio)acetamide]
O=C(CSc1n[nH]c(NC(=O)NCc2ccccc2)n1)Nc1ccc([N+](=O)[O-])cc1 [Example 19, 2-((5-(3-benzylureido)-1H-1,2,4-triazol-3-yl)thio)-N-(4-nitrophenyl)acetamide]
CC(=O)c1cccc(NC(=O)CSc2n[nH]c(NC(=O)NCc3ccccc3)n2)c1 [Example 20, N-(3-acetylphenyl)-2-((5-(3-benzylureido)-1H-1,2,4-triazol-3-yl)thio)acetamide]
Cc1cc([N+](=O)[O-])ccc1NC(=O)CSc1n[nH]c(NC(=O)NCc2ccccc2)n1 [Example 21, 2-((5-(3-benzylureido)-1H-1,2,4-triazol-3-yl)thio)-N-(2-methyl-4-nitrophenyl)acetamide]
